According to patent EP4400508A1, “ACTIVE PEPTIDE AND USE THEREOF” (Harvest Biotech Co., Ltd, priority 2021, dated 2024):
No end group written: not given here.

Tested on: Chicken Embryo
Test: Chicken embryo safety test (HET-CAM, SN/T 2329-2009), irritation score method
Settings: dose up to 500 ppm

ESETRILLQ [EQ-9, ESETRILLQ] was tested, and the “Irritation Classification” value (HET-CAM) was “non-irritant”, the “irritation score (IS)” value (HET-CAM) was 0.35 and the safety issue (FIG. 1) was “no safety issue”.
